Reference: patent publication US12378247B2, “Mesylate salt of para-topolin, compositions containing said salt and use thereof” (USTAV EXPERIMENTALNI BOTANIKY AV CR, V. V. I., priority 2020, dated 2025)
Converted amounts (≈) assume the structure as drawn. Where a name gives a salt, the structure may show the parent alone. Read-outs that look alike come from different tables or passages of the source.

Columns and labels:
[1] = Solubility in various organic solvents; format: physicochemical
Experimental: Solubility in various organic solvents was measured using the following protocol. Approximately 10 mg portions of para-topolin and crystalline para-topolin mesylate salt were placed in different vials, separately. Five volume aliquots of each solvent were added exclusively to a vial. Between each addition, the mixture was checked for dissolution and if no dissolution was apparent, the procedure was continued until dissolution was observed or further volumes had been added.

[2] = ORAC (Oxygen Radical Absorbance Capacity), ability to scavenge free radicals; format: biochemical; conditions: n = 3
Experimental: The ability of the substance to scavenge free radicals in vitro was determined using the ORAC (Oxygen Radical Absorbance Capacity) method. Briefly, 100 μl of fluorescein ([…]) and 25 μl of tested substance solution were pipetted into each well of a 96-well microtiter plate preheated to 37° C. The reaction itself was started by the addition of 25 μL 250 mM AAPH. After shaking for 5 s, the fluorescence (Ex. 485 nm, Em. 510 nm) was read every 3 min for 90 min using an Infinite 200 instrument (TECAN, Switzerland). The area under the curve was used to express the antioxidant capacity relative to trolox, which is used as a standard. […] Such activities are likely to be closely related to the electron-rich C6-hydroxybenzylamino substituent system.

Rat glioma C6 cells = test: Anti-inflammatory activity: isoproterenol-induced intracellular cAMP synthesis; format: cell-based
Experimental: The anti-inflammatory activity of para-topolin and para-topolin mesylate was determined; cytokinin kinetin was also evaluated as a control. Rat glioma C6 cells (ATCC No. CCL107) were cultured in a monolayer in chemically defined beser medium containing Ham's F10/minimal essential medium (1:1 v/v), 2 mM L-glutamine, 1% (v/v). Minimum vitamins of essential medium (100×), 1% (v/v) minimum essential amino acids (100×), 100 U/ml penicillin, […] streptomycin and 30 nM sodium selenite. Incubation was performed at 37° C. in a 100% humidified atmosphere. The assays were performed in logarithmic growth phase at a density of 2.5×10^5 cells/cm^2. Intracellular cAMP synthesis was induced by the addition of 5 mM (−)-isoproterenol; at the same time, various concentrations of tested compounds were added at the same time as (−)-isoproterenol. After 30 minutes of incubation, the cellular amount of CAMP was determined by ELISA (cAMP-enzyme immunoassay from Amersham). IC50 values were determined from the […] dose-response curve.

[3] = tested on: Senescent human diploid fibroblasts; test: Senescent cells (beta-galactosidase X-gal staining) in human fibroblast culture; format: cell-based
Experimental: Senescent human diploid fibroblasts (cells of different levels of passage: passage 20-P20; passage 40—labeled P40; passage 80—labeled P80) were seeded in a 24-well plate (10,000 cells/well). The culture medium (DMEM containing 5 g/l glucose, 2 mM glutamine, 100 U/ml penicillin, 100 μg/ml streptomycin and 10% fetal calf serum) was removed and replaced with culture medium containing test compound in a concentration range of 0 to 12.5 μM. Each concentration was tested in triplicate. The cells were then incubated at 37° C. […] In this experiment, senescent cells, but not other cells, were stained blue due to β-galactosidase on the substrate. […] In the oldest cells, there were only blue cells, from bright blue to almost opaque in color. Both para-topolins (base and mesylate salt) were effective in maintaining much lower levels of senescent cells after 80 passages. In the case of long-term culture, the treated cells were able to live 30% longer than the control cells.

[4] = tested on: Human diploid fibroblast BJ; test: MTT cytotoxicity assay in normal fibroblasts; format: cell-based; conditions: 72 hours
Experimental: MTT (metabolic tetrazolium toxicity) assay is a standard colorimetric assay for evaluation of cytotoxicity. Mitochondrial dehydrogenase activity converts yellow MTT into violet formazan which is measured by means of spectrometry. Human diploid fibroblast BJ (passage 18-22) were seeded into 96-well plate (5.000 cells per well). After 6 hours cultivation medium (DMEM with 5 g/l glucose, 2 mM glutamine, 100 U/ml penicillin, […] streptomycin, 10% fetal calf serum and sodium bicarbonate) was replaced with the cultivation medium containing test compounds in concentration range of 0-200 μM. Highest concentration was adjusted if the solubility of the compound was limiting. Every concentration was tested in pentaplicate. MTT was added to the cells after 72 hours incubation (final concentration 0.5 mg/ml) and incubation continued for another 3 hours. MTT was solubilised by DMSO and absorbance at 570 nm was measured. Growth inhibition (GI) was estimated using the following equitation: GI=(mean A drug exposed wells-mean Ablank/mean Acontrol wells−mean Ablank)×100%. The GI20 value, the drug concentration causing 20% decrease in mitochondrial dehydrogenase activity, was calculated from the obtained dose response curves.

[5] = tested on: Salmonella typhimurium strain TA 98, TA 100, TA 1535, TA 1537 and Escherichia coli strain WP2 avrA; test: Ames test (bacterial reverse mutation assay); format: cell-based; conditions: 10-1000 μg per plate, with and without metabolic activation (rat liver supernatant)
Experimental: Para-topolin and para-topolin mesylate were tested for mutagenicity by a bacterial reverse mutation assay. The performance of the test was based on the EU method B.13/14 Mutagenicity-Reverse mutation test using bacteria, Council Regulation (EC) No. 440/2008, which is analogous to the OECD Test Guideline No. 471. Four indicators of Salmonella typhimurium strain TA 98, TA 100, TA 1535, TA 1537 were used and one Escherichia coli strain WP2 avrA was also used. The test substances were dissolved in dimethyl sulfoxide (DMSO) and tested at doses of 10-1000 μg per plate, which was applied to 0.1 ml plates. The experiments were performed with metabolic activation with rat liver supernatant and cofactor mixture as well as without metabolic activation.

[6] = isoproterenol-induced cAMP, C6 cells

## Oc1ccc(CNc2ncnc3nc[nH]c23)cc1 [para-topolin, 6-(4-Hydroxybenzylamino) purine]
[1]; DMF, listed as p-topolin
  Solubility: 5000 µg/mL (≈ 20700 µM)
[1]; DMSO, organic solvent or mixture, thermodynamic from solid, DMSO, read-out: Solubility
  Solubility: 6660 µg/mL (≈ 27600 µM)
[1]; acetone, organic solvent or mixture, thermodynamic from solid, acetone, read-out: Solubility
  Solubility: 200 µg/mL (≈ 829 µM)
[1]; acetonitrile, organic solvent or mixture, thermodynamic from solid, acetonitrile, read-out: Solubility
  Solubility: < 250 µg/mL
[1]; ethanol, organic solvent or mixture, thermodynamic from solid, ethanol, read-out: Solubility
  Solubility: 250 µg/mL (≈ 1040 µM)
[1]; heptane, organic solvent or mixture, thermodynamic from solid, heptane, read-out: Solubility
  Solubility: < 100 µg/mL
[1]; methanol, listed as p-topolin
  Solubility: 250 µg/mL (≈ 1040 µM)
[2]; listed as 6-(4-hydroxybenzylamino)purine (pT)
  ORAC Average(TE), Trolox equivalents on equimolar basis: 16.799 TE
Rat glioma C6 cells; Rattus norvegicus, C6, 0.5 h, 5 mM (−)-isoproterenol, 30 minutes, cAMP by ELISA
  IC50: 7 µM
Rat glioma C6 cells; [6]
  Anti-inflammatory activity (in words): showed anti-inflammatory activity
[3]; cell passage P20, listed as 6-(4-hydroxybenzylamino)purine (para-topolin)
  Senescent cells (%): 4%
[3]; cell passage P40, listed as 6-(4-hydroxybenzylamino)purine (para-topolin)
  Senescent cells (%): 14%
[3]; cell passage P80, listed as 6-(4-hydroxybenzylamino)purine (para-topolin)
  Senescent cells (%): 25%
[4]; listed as 6-(4-hydroxybenzylamino)purine (para-topolin)
  Cytotoxicity for Human Diploid Fibroblasts GI20: 138 µM
[5]
  Mutagenicity: non-mutagenic

## Oc1ccc(CNc2ncnc3nc[nH]c23)cc1 [para-topolin mesylate, 6-(4-hydroxybenzylamino) purine (para-topolin) mesylate (methylsulphonate)]
[1]; DMF, listed as p-topolin mesylate
  Solubility: 14000 µg/mL
[1]; DMSO, listed as p-topolin mesylate
  Solubility: 10000 µg/mL
[1]; acetone, listed as p-topolin mesylate
  Solubility: 330 µg/mL
[1]; acetonitrile
  Solubility: <250 µg/mL
[1]; ethanol, listed as p-topolin mesylate
  Solubility: 400 µg/mL
[1]; heptane
  Solubility: <100 µg/mL
[1]; methanol, listed as p-topolin mesylate
  Solubility: 5000 µg/mL
[2]; listed as 6-(4-hydroxybenzylamino)purinium mesylate (pT mesylate)
  ORAC Average(TE), Trolox equivalents on equimolar basis: 21.436 TE
Rat glioma C6 cells; [6]
  Anti-inflammatory activity (in words): showed anti-inflammatory activity
  Anti-inflammatory activity relative to free base para-topolin: twice more active
[3]; cell passage P20, listed as 6-(4-hydroxybenzylamino)purine mesylate (para-topolin mesylate)
  Senescent cells (%): 3%
[3]; cell passage P40, listed as 6-(4-hydroxybenzylamino)purine mesylate (para-topolin mesylate)
  Senescent cells (%): 12%
[3]; cell passage P80, listed as 6-(4-hydroxybenzylamino)purine mesylate (para-topolin mesylate)
  Senescent cells (%): 21%
[4]; listed as 6-(4-hydroxybenzylamino)purine mesylate (para-topolin mesylate)
  Cytotoxicity for Human Diploid Fibroblasts GI20: >167 µM
[5]
  Mutagenicity: non-mutagenic
